Data as given in patent publication US20160022636A1, “PHYSIOLOGICAL LIGANDS FOR GPR139” (JANSSEN PHARMACEUTICA NV, priority 2013, published 2016).
Several values for one entry are separate records, joined by “and”; a condition that tells them apart may be missing. Equal entries are not always repeated.

Experiments:
GO2Q alone = assay: GTPγS binding assay, control membranes from COS7 cells expressing GO2Q alone (Ct-GO2Q); assay type: biochemical; settings: for Activation levels (GTPγS binding signal), Ct-GO2Q: 1 mM final concentration, single wells of triplicate, COS7 membranes with GO2Q alone (control panel); for activation of membranes from cells expressing GO2Q alone (in words): 1 mM, same assay
Description: (§1) Human (A and B) or mouse (C and D) GPR139 were co-transfected with chimeric G-protein GO2Q into COS7 cells. Cell membranes from transfected cells were used in GTPγS binding studies using various ligands at different concentrations to stimulate GPR139. Membranes from COS7 cells transfected by GO2Q were used as the controls (E and F).
(§2) In order identify the ligands for GPR139 two improvements in the detection assay were made to allow for the ligands to be detected. First, we chose to use a GTPγS binding assay instead of using live cultured cells. The GTPγS binding assay is a cell free system that uses the cell membrane of the cell(s) of interest rather than the live cell(s). One advantage of this assay is that potential ligands present in the cell culture media are washed away when the cell membrane is prepared. This reduces the basal level of signal and increase the chance of detecting receptor ligands when assessing compounds that activate the receptor. Second, a GO2Q chimeric G-protein was created to be co-expressed with GPR139 in order to increase the signal-to-noise ratio in the GTPγS binding assay. Historically, the Gi, Go coupled GPCRs offer much greater signal-to-noise ratio in GTPγS binding studies. For Gs and Gq coupled GPCRs, although ligand-stimulated specific signals can be detected in a GTPγS binding assay, the signal-to-noise ratios are often very small. To address this a chimeric GO2-Gq chimeric G-protein, GO2Q, with the N-terminus from Go2 protein and the C-terminus from Gq protein.
(§3) To test for compounds that activate GPR139, different amino acids and their derivatives (Table 2) were tested as ligands in the GTPγS binding assay using cell membranes from COS7 cells co-expressing GPR139 and GO2Q. Cell membrane from COS7 cells expressing GO2Q alone or co-expressing other GPCRs were also tested in GTPγS binding assay in parallel as controls. Each compound was tested in triplicate.

GPCR119 = assay: GTPγS binding assay, membranes co-expressing GO2Q and GPCR119; assay type: biochemical; settings: data not shown
Procedure: as §3

GPCR134 = assay: GTPγS binding assay, membranes co-expressing GO2Q and GPCR134; assay type: biochemical; settings: data not shown
Procedure: as §3

GPR139 [1] = molecular target: T1, GPR139 (Homo sapiens, UniProt Q6DWJ6); assay: calcium mobilization assay (FLIPR), GPR139 transiently expressed in HEK293 cells; assay type: cell-based; set-up: expressed in transfected cells; host or cells: HEK293; settings: HEK293 cells transiently expressing human GPR139, FIG. 3
T1 sequence (Q6DWJ6 1-353): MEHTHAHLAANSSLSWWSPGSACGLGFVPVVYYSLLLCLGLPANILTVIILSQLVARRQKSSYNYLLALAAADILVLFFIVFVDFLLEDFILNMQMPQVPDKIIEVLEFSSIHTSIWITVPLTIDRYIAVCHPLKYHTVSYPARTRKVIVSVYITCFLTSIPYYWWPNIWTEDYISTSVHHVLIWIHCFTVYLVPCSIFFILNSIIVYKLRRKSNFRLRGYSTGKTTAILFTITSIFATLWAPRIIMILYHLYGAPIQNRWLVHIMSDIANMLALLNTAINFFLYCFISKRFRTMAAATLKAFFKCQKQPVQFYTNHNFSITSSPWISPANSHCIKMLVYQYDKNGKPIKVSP
Description: For these experiments human GPR139 was transiently expressed in HEK293 cells and calcium mobilization was stimulated using L-Trp, L-Phe or their derivatives.

GPR139 [2] = molecular target: T1, GPR139; assay: GTPγS binding dose response, COS7 membranes co-transfected with human GPR139 and GO2Q; assay type: biochemical; set-up: expressed in transfected cells; host or cells: COS7; settings: human GPR139, FIG. 2 A and B
Description: as §1, with “FIG. 2: Tryptophan, phenylalanine, and their derivatives activate GPR139. Human” for “Human”

GPR139 [3] = molecular target: T1, GPR139; assay: GTPγS binding assay, membranes from COS7 cells co-expressing GPR139 and GO2Q, single concentration screen; assay type: biochemical; set-up: expressed in transfected cells; host or cells: COS7; settings: for activation of GPR139 in GTPγS binding assay (in words): 1 mM; for Activation levels of GPR139 (GTPγS binding signal), GPR139-GO2Q: 1 mM final concentration, single wells of triplicate, COS7 membranes co-expressing GPR139 and GO2Q
Procedure: as §2, §3

GPR21 = molecular target: T2, GPR21 (Homo sapiens, UniProt Q99679); assay: GTPγS binding assay, membranes co-expressing GO2Q and GPR21; assay type: biochemical; settings: data not shown
T2 construct: expressed in transfected cells; host or cells: COS7
T2 sequence (Q99679 whole entry, species assumed): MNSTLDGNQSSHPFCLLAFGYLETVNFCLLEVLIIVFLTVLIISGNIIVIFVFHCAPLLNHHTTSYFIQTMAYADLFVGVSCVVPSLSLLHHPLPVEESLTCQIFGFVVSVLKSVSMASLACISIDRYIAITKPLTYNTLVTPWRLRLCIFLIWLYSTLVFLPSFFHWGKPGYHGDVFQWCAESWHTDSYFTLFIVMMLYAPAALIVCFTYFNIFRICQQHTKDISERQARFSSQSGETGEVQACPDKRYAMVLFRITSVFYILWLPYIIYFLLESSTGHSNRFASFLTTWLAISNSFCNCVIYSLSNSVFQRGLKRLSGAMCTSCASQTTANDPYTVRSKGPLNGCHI
Procedure: as §3

mouse GPR139 = molecular target: T3, mouse GPR139 (Mus musculus, UniProt Q80UC8); assay: GTPγS binding dose response, COS7 membranes co-transfected with mouse GPR139 and GO2Q; assay type: biochemical; settings: mouse GPR139, FIG. 2 C and D
T3 construct: expressed in transfected cells; host or cells: COS7
T3 sequence (Q80UC8 1-345): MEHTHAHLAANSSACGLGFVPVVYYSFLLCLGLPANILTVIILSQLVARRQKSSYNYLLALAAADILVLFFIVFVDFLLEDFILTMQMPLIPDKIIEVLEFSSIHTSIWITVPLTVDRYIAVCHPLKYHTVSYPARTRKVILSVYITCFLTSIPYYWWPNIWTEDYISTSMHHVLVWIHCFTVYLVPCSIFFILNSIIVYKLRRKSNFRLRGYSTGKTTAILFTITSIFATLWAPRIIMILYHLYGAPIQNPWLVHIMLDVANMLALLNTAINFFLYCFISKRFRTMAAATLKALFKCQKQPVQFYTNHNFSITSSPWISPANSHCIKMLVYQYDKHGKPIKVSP
Description: as §1, with “FIG. 2: Tryptophan, phenylalanine, and their derivatives activate GPR139. Human” for “Human”

GPR52 = molecular target: T4, GPR52 (Homo sapiens, UniProt Q9Y2T5); assay: GTPγS binding assay, membranes co-expressing GO2Q and GPR52; assay type: biochemical; settings: data not shown
T4 construct: expressed in transfected cells; host or cells: COS7
T4 sequence (Q9Y2T5 whole entry, species assumed): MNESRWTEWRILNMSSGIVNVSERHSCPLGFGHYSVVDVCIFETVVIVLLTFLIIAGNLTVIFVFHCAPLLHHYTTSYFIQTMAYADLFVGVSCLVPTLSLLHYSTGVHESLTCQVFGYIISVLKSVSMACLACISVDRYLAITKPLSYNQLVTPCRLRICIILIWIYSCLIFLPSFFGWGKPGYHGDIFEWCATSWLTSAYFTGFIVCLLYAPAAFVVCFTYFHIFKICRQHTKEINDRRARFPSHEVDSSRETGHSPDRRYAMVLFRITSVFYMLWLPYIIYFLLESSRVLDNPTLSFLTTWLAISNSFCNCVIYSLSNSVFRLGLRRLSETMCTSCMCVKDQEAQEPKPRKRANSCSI
Procedure: as §3

GPR182 = molecular target: T5, GPR182 (Homo sapiens, UniProt O15218); assay: GTPγS binding assay, membranes co-expressing GO2Q and GPR182; assay type: biochemical; settings: data not shown
T5 construct: expressed in transfected cells; host or cells: COS7
T5 sequence (O15218 whole entry, species assumed): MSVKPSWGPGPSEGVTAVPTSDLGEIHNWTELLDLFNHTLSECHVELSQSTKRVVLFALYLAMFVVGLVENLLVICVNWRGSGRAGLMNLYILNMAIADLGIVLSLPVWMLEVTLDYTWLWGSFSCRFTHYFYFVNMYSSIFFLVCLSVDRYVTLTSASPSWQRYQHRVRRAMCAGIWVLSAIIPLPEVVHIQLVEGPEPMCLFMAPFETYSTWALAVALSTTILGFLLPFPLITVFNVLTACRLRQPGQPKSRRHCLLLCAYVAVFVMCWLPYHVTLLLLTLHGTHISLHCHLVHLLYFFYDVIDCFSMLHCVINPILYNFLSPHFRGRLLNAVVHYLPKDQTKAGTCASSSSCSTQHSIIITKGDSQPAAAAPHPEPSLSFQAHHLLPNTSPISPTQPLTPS
Procedure: as §3

GPCR132 = assay: GTPγS binding assay, membranes co-expressing GO2Q and GPCR132; assay type: biochemical; settings: data not shown
Procedure: as §3

Structure (SMILES): N[C@@H](Cc1c[nH]c2ccccc12)C(=O)O [L-Trp, L-tryptophan]
- Activation levels (GTPγS binding signal), Ct-GO2Q (GO2Q alone): 2172 and 2234 and 2272
- activation of membranes from cells expressing GO2Q alone (in words) (GO2Q alone): did not activate
- activation of membranes co-expressing GO2Q and GPCR119 (in words) (GPCR119): did not activate
- activation of membranes co-expressing GO2Q and GPCR134 (in words) (GPCR134): did not activate
- stimulation of calcium mobilization (in words) (GPR139 [1]): specifically stimulate calcium mobilization
- dose response activation of GPR139 (in words) (GPR139 [2]): specifically activate GPR139 in a dose-responsive manner
- activation of GPR139 in GTPγS binding assay (in words) (GPR139 [3]): able to activate GPR139
- Activation levels of GPR139 (GTPγS binding signal), GPR139-GO2Q (GPR139 [3]): 8141 and 9121 and 9149
- activation of membranes co-expressing GO2Q and GPR21 (in words) (GPR21): did not activate
- dose response activation of GPR139 (in words) (mouse GPR139): specifically activate GPR139 in a dose-responsive manner
- activation of membranes co-expressing GO2Q and GPR52 (in words) (GPR52): did not activate
- activation of membranes co-expressing GO2Q and GPR182 (in words) (GPR182): did not activate
- activation of membranes co-expressing GO2Q and GPCR132 (in words) (GPCR132): did not activate

Structure (SMILES): N[C@@H](Cc1ccccc1)C(=O)O [L-Phe, L-phenylalanine]
- Activation levels (GTPγS binding signal), Ct-GO2Q (GO2Q alone): 2190 and 2215 and 2345
- activation of membranes from cells expressing GO2Q alone (in words) (GO2Q alone): did not activate
- activation of membranes co-expressing GO2Q and GPCR119 (in words) (GPCR119): did not activate
- activation of membranes co-expressing GO2Q and GPCR134 (in words) (GPCR134): did not activate
- stimulation of calcium mobilization (in words) (GPR139 [1]): specifically stimulate calcium mobilization
- dose response activation of GPR139 (in words) (GPR139 [2]): specifically activate GPR139 in a dose-responsive manner
- activation of GPR139 in GTPγS binding assay (in words) (GPR139 [3]): able to activate GPR139
- Activation levels of GPR139 (GTPγS binding signal), GPR139-GO2Q (GPR139 [3]): 8697 and 6925 and 8417
- activation of membranes co-expressing GO2Q and GPR21 (in words) (GPR21): did not activate
- dose response activation of GPR139 (in words) (mouse GPR139): specifically activate GPR139 in a dose-responsive manner
- activation of membranes co-expressing GO2Q and GPR52 (in words) (GPR52): did not activate
- activation of membranes co-expressing GO2Q and GPR182 (in words) (GPR182): did not activate
- activation of membranes co-expressing GO2Q and GPCR132 (in words) (GPCR132): did not activate
